In patent publication US6737383B1, “Herbicidal oxadiazolidines” (priority 1999, dated 2004):

Experiments:
cocklebur = test: Test B pre/postemergence cocklebur; type: in vivo, Xanthium strumarium
Excerpt: (§1) Seeds of bedstraw (Galium aparine), blackgrass (Alopecurus myosuroides), surinam grass (Brachiaria decumbens), cocklebur (Xanthium strumarium), corn (Zea mays), crabgrass (Digitaria sanguinalis), giant foxtail (Setaria faberii), morningglory (Ipomoea hederacea), pigweed (Amaranthus retroflexus), rape (Brassica napus), soybean (Glycine max), sugar beet (Beta vulgaris), velvetleaf (Abutilon theophrasti), wheat (Triticum aestivum), wild oat (Avena fatua) and purple nutsedge (Cyperus rotundus) tubers were planted and treated preemnergence with test chemicals formulated in a non-phytotoxic solvent mixture which included a surfactant.
(§2) At the same time, these crop and weed species were also treated with postemergence applications of test chemicals formulated in the same manner. Plants ranged in height from 2 to 18 cm (1- to 4-leaf stage) for postemergence treatments. Plant species in the flood test consisted of rice (Oryza sativa), smallflower flatsedge (Cyperus difformis), duck salad (Heteranthera limosa) and bamyardgrass (Echinochloa crus-galli) grown to the 2-leaf stage for testing. Treated plants and controls were maintained in a greenhouse for twelve to sixteen days, after which all species were compared to controls and visually evaluated. Plant response ratings, summarized in Table B, are based on a scale of 0 to 10 where 0 is no effect and 10 is complete control. A dash (−) response means no test result.

soybean = test: Test B pre/postemergence soybean; type: in vivo, Glycine max
Excerpt: as §1, §2

wild oat = test: Test B pre/postemergence wild oat; type: in vivo, Avena fatua
Excerpt: as §1, §2

crabgrass = test: Test B pre/postemergence crabgrass; type: in vivo, Digitaria sanguinalis
Excerpt: as §1, §2

rape = test: Test B pre/postemergence rape; type: in vivo, Brassica napus
Excerpt: as §1, §2

velvetleaf = test: Test B pre/postemergence velvetleaf; type: in vivo, Abutilon theophrasti
Excerpt: as §1, §2

blackgrass = test: Test B pre/postemergence blackgrass; type: in vivo, Alopecurus myosuroides
Excerpt: as §1, §2

corn = test: Test B pre/postemergence corn; type: in vivo, Zea mays
Excerpt: as §1, §2

giant foxtail = test: Test B pre/postemergence giant foxtail; type: in vivo, Setaria faberii
Excerpt: as §1, §2

sugar beet = test: Test B pre/postemergence sugar beet; type: in vivo, Beta vulgaris
Excerpt: as §1, §2

pigweed = test: Test B pre/postemergence pigweed; type: in vivo, Amaranthus retroflexus
Excerpt: as §1, §2

bedstraw = test: Test B pre/postemergence bedstraw; type: in vivo, Galium aparine
Excerpt: as §1, §2

surinam grass = test: Test B pre/postemergence surinam grass; type: in vivo, Brachiaria decumbens
Excerpt: as §1, §2

morningglory = test: Test B pre/postemergence morningglory; type: in vivo, Ipomoea hederacea
Excerpt: as §1, §2

purple nutsedge = test: Test B pre/postemergence purple nutsedge; type: in vivo, Cyperus rotundus
Excerpt: as §1, §2

wheat = test: Test B pre/postemergence wheat; type: in vivo, Triticum aestivum
Excerpt: as §1, §2

[1] = Postemergence, Rate 125 g/ha, scale of 0 to 10 where 0 is no effect and 10 is complete control
[2] = Preemergence, Rate 62 g/ha, scale 0 to 10 (0 no effect, 10 complete control)
[3] = Preemergence, Rate 125 g/ha, 0 is no effect, 10 is complete control
[4] = Preemergence, Rate 250 g/ha, scale 0 to 10, 0 is no effect, 10 is complete control
[5] = Preemergence, Rate 500 g/ha, scale 0 to 10 (0 no effect, 10 complete control)
[6] = Rate 62 g/ha, Postemergence, scale of 0 to 10 where 0 is no effect and 10 is complete control
[7] = Rate 250 g/ha, Postemergence, scale 0 to 10, 0 is no effect, 10 is complete control
[8] = Rate 500 g/ha, Postemergence, scale 0 to 10

CC(C)N(C(=O)n1oc(=O)n(C(C)c2ccccc2)c1=O)c1ccc(F)cc1 (stereo not shown) [Compound 134]
Cocklebur plant response rating (cocklebur; [1]): 0
Cocklebur plant response rating (cocklebur; [2]): 0
Cocklebur plant response rating (0 to 10 scale) (cocklebur; [3]): 0
Cocklebur plant response rating (cocklebur; [4]): 0
Cocklebur plant response rating (cocklebur; [5]): 0
Cocklebur plant response rating (cocklebur; [6]): 0
Plant response rating, Cocklebur (cocklebur; [7]): 0
Cocklebur plant response rating (cocklebur; [8]): 1
Soybean plant response rating (soybean; [1]): 1
Soybean plant response rating (soybean; [2]): 0
Soybean plant response rating (0 to 10 scale) (soybean; [3]): 0
Soybean plant response rating (soybean; [4]): 0
Soybean plant response rating (soybean; [5]): 0
Soybean plant response rating (soybean; [6]): 1
Plant response rating, Soybean (soybean; [7]): 1
Soybean plant response rating (soybean; [8]): 1
Wild oats plant response rating (wild oat; [1]): 0
Wild oats plant response rating (wild oat; [2]): 0
Wild oats plant response rating (0 to 10 scale) (wild oat; [3]): 0
Wild oats plant response rating (wild oat; [4]): 2
Wild oats plant response rating (wild oat; [5]): 2
Wild oats plant response rating (wild oat; [6]): 0
Plant response rating, Wild oats (wild oat; [7]): 0
Wild oats plant response rating (wild oat; [8]): 0
Crabgrass plant response rating (crabgrass; [1]): 0
Crabgrass plant response rating (crabgrass; [2]): 2
Crabgrass plant response rating (0 to 10 scale) (crabgrass; [3]): 6
Crabgrass plant response rating (crabgrass; [4]): 9
Crabgrass plant response rating (crabgrass; [5]): 9
Crabgrass plant response rating (crabgrass; [6]): 0
Plant response rating, Crabgrass (crabgrass; [7]): 4
Crabgrass plant response rating (crabgrass; [8]): 9
Rape plant response rating (rape; [1]): 0
Rape plant response rating (rape; [2]): 0
Rape plant response rating (0 to 10 scale) (rape; [3]): 0
Rape plant response rating (rape; [4]): 0
Rape plant response rating (rape; [5]): 6
Rape plant response rating (rape; [6]): 0
Plant response rating, Rape (rape; [7]): 0
Rape plant response rating (rape; [8]): 0
Velvetleaf plant response rating (velvetleaf; [1]): 0
Velvetleaf plant response rating (velvetleaf; [2]): 0
Velvetleaf plant response rating (0 to 10 scale) (velvetleaf; [3]): 0
Velvetleaf plant response rating (velvetleaf; [4]): 2
Velvetleaf plant response rating (velvetleaf; [5]): 7
Velvetleaf plant response rating (velvetleaf; [6]): 0
Plant response rating, Velvetleaf (velvetleaf; [7]): 0
Velvetleaf plant response rating (velvetleaf; [8]): 4
Blackgrass plant response rating (blackgrass; [1]): 0
Blackgrass plant response rating (blackgrass; [2]): 0
Blackgrass plant response rating (0 to 10 scale) (blackgrass; [3]): 0
Blackgrass plant response rating (blackgrass; [4]): 2
Blackgrass plant response rating (blackgrass; [5]): 2
Blackgrass plant response rating (blackgrass; [6]): 0
Plant response rating, Blackgrass (blackgrass; [7]): 0
Blackgrass plant response rating (blackgrass; [8]): 7
Corn plant response rating (corn; [1]): 0
Corn plant response rating (corn; [2]): 0
Corn plant response rating (0 to 10 scale) (corn; [3]): 0
Corn plant response rating (corn; [4]): 0
Corn plant response rating (corn; [5]): 0
Corn plant response rating (corn; [6]): 0
Plant response rating, Corn (corn; [7]): 0
Corn plant response rating (corn; [8]): 0
Giant foxtail plant response rating (giant foxtail; [1]): 0
Giant foxtail plant response rating (giant foxtail; [2]): 6
Giant foxtail plant response rating (0 to 10 scale) (giant foxtail; [3]): 9
Giant foxtail plant response rating (giant foxtail; [4]): 10
Giant foxtail plant response rating (giant foxtail; [5]): 10
Giant foxtail plant response rating (giant foxtail; [6]): 0
Plant response rating, Giant foxtail (giant foxtail; [7]): 0
Giant foxtail plant response rating (giant foxtail; [8]): 3
Sugarbeets plant response rating (sugar beet; [1]): 0
Sugarbeets plant response rating (sugar beet; [2]): 0
Sugarbeets plant response rating (0 to 10 scale) (sugar beet; [3]): 2
Sugarbeets plant response rating (sugar beet; [4]): 4
Sugarbeets plant response rating (sugar beet; [5]): 7
Sugarbeets plant response rating (sugar beet; [6]): 0
Plant response rating, Sugarbeets (sugar beet; [7]): 0
Sugarbeets plant response rating (sugar beet; [8]): 2
Redroot pigweed plant response rating (pigweed; [1]): 0
Redroot pigweed plant response rating (pigweed; [2]): 0
Redroot pigweed plant response rating (0 to 10 scale) (pigweed; [3]): 0
Redroot pigweed plant response rating (pigweed; [4]): 0
Redroot pigweed plant response rating (pigweed; [5]): 2
Redroot pigweed plant response rating (pigweed; [6]): 0
Plant response rating, Redroot pigweed (pigweed; [7]): 0
Redroot pigweed plant response rating (pigweed; [8]): 0
Bedstraw plant response rating (bedstraw; [1]): 4
Bedstraw plant response rating (bedstraw; [2]): 0
Bedstraw plant response rating (0 to 10 scale) (bedstraw; [3]): 0
Bedstraw plant response rating (bedstraw; [4]): 0
Bedstraw plant response rating (bedstraw; [5]): 3
Bedstraw plant response rating (bedstraw; [6]): 4
Plant response rating, Bedstraw (bedstraw; [7]): 4
B. signalgrass plant response rating (surinam grass; [1]): 0
B. signalgrass plant response rating (surinam grass; [2]): 0
B. signalgrass plant response rating (0 to 10 scale) (surinam grass; [3]): 2
B. signalgrass plant response rating (surinam grass; [4]): 6
B. signalgrass plant response rating (surinam grass; [5]): 8
B. signalgrass plant response rating (surinam grass; [6]): 0
Plant response rating, B. signalgrass (surinam grass; [7]): 0
B. signalgrass plant response rating (surinam grass; Rate 500 g/ha, Postemergence, scale of 0 to 10 where 0 is no effect and 10 is complete control): 2
Morningglory plant response rating (morningglory; [1]): 6
Morningglory plant response rating (morningglory; [2]): 0
Morningglory plant response rating (0 to 10 scale) (morningglory; [3]): 0
Morningglory plant response rating (morningglory; [4]): 0
Morningglory plant response rating (morningglory; [5]): 1
Morningglory plant response rating (morningglory; [6]): 5
Plant response rating, Morningglory (morningglory; [7]): 8
Morningglory plant response rating (morningglory; [8]): 8
Nutsedge plant response rating (purple nutsedge; [1]): 0
Nutsedge plant response rating (purple nutsedge; [2]): 0
Nutsedge plant response rating (0 to 10 scale) (purple nutsedge; [3]): 0
Nutsedge plant response rating (purple nutsedge; [4]): 0
Nutsedge plant response rating (purple nutsedge; [5]): 0
Nutsedge plant response rating (purple nutsedge; [6]): 0
Plant response rating, Nutsedge (purple nutsedge; [7]): 0
Nutsedge plant response rating (purple nutsedge; [8]): 0
Wheat plant response rating (wheat; [1]): 0
Wheat plant response rating (wheat; [2]): 0
Wheat plant response rating (0 to 10 scale) (wheat; [3]): 0
Wheat plant response rating (wheat; [4]): 0
Wheat plant response rating (wheat; [5]): 0
Wheat plant response rating (wheat; [6]): 0
Plant response rating, Wheat (wheat; [7]): 0
Wheat plant response rating (wheat; [8]): 0
